These results are taken from article PMC10517971, “An inverse agonist of orphan receptor GPR61 acts by a G protein-competitive allosteric mechanism” (Nature Communications, 2023).

The structures appear in SMILES notation. Where two headings read alike, the source gives them in different places.

One test concerns the target T1, human GPR61 (Homo sapiens, UniProt Q9BZJ8).
T1 construct: expressed in transfected cells; host or cells: CHO-K1, transient (Fugene6)
The test is described as follows: Functional cAMP assay (HTRF), stable CHO TREx human GPR61 cells. Type of test: cell-based. The source says: The human GPR61 (reference sequence NM_031936.4) cDNA was synthesized and subcloned into pcDNA5/FRT/TO (Thermo Fisher, Pittsburgh, PA). The pcDNA5/FRT/TO/ human GPR61 plasmid was then transfected into the Flp-In™-CHO Cell Line (Thermo Fisher, Pittsburgh, PA) and a doxycycline-inducible clonal cell line was selected (CHO TREx hGPR61 WT). Sequences encoding untagged and HiBit/hemagglutinin (HA)-tagged versions of the wild-type human GPR61 were synthesized and cloned into pcDNA3.1. The HiBit ([…]) and HA ([…]) tags were sequentially included after the N-terminal initiator methionine. Four single amino acid substitutions (N137A, R140A, V288A, N345A) were then introduced in the untagged and tagged human GPR61 constructs using site-specific mutagenesis. The nucleotide sequences of all receptor constructs were confirmed by automated DNA sequencing.
A homogeneous Time-Resolved Fluorescence (HTRF) assay (Perkin Elmer, Dynamic2 kit #) was used to assess receptor basal and inverse agonist activity at human GPR61, GPR62, and GPR101. For routine inverse agonist screening frozen CHO TREx human GPR61, GPR62 and GPR101 cells were used. […] Data were analyzed using the ratio of fluorescence intensity at 620 and 665 nm for each well, extrapolated from the cAMP standard curve to express data as nM cAMP for each well. […]
(In general: Cyclic AMP is a second messenger, typically raised through Gs and lowered through Gi signalling.)

In another test the target is hERG (Homo sapiens, UniProt Q12809). The test is described as follows: hERG ion channel profiling, Qube384 automated patch clamp (standard and extended protocol). The class given is cell-based. The text has this:
105 hERG, Nav1.5 and Cav1.2 Ion Channel Profiling
106 Ionic curr ents wer e evalu ated in the whole-cell con figuration using the Qube384 automated planar
107 patch clamp platform (Sophion Bioscience A/S, Ballerup, Denmark). QChip 384X plates,
108 containing 10 patch clamp holes per well, were used to maximize success rate, which was routinely
110 For hERG experiments, the external solution was composed of (in mM): 132 NaCl, 4 KCl, 1.8
111 CaCl2, 1.2 MgCl2, 10 HEPES, 11 Glucose, pH 7.4, 305 mOsM. […]
121 The hERG current was elicited from a holding potential of - 80 mV by a voltage step to +40 mV
122 for 500 ms, followed by a repolarizing ramp to - 80 mV at - 0.6 mV/ms. This pattern was repeated
123 at a rate of 0.05 Hz. Peak hERG current was measured during the ramp. […]
126 Nav1.5 current, from a holding potential of - 80 mV, a 200 ms prepulse to - 120 mV was used to
127 homogenize channel inactivation, followed by a 40 ms step to a test potential of - 15 mV.
128 Membrane potential was further depolarized to +40 mV for 200 ms to completely inactivate the
129 peak Nav1.5 current, followed by a ramp from +40 mV to - 80 mV (-1.2 mV/ms). This voltage
130 pattern was repeated at 0.1 Hz, with peak Nav1.5 defined as the maximum current during the step
131 to - 15 mV. All studies were conducted at 23° C.
132 Compounds were dissol ved and initially diluted in dimethyl sulfoxide (DMSO), with a final
133 dilution in external solution to generate final working concent rations. The final DMSO
134 concentration in all experiments was 0.33% (v/v).
135 For all protocols three vehicle periods each lasting 5 minutes were applied to establish a stable
136 baseline. For the standard protocol this was followed by the addition of increasing concentrations
137 of test compound, with each exposure lasting 5 minutes. For the “extended” protocol following
138 the three- vehi cle additional each well subsequentl y received a single concentration of compound.
139 This application was repeated three times for each well, via a flowthrough addition where the
140 solution was replaced wi th the same compound concentration with each addition. Each exposure
142 Patch clamp data were analyzed using Assay Software 6.4.72 (Sophion Bioscience A/S, Ballerup,
143 Denmark). Current amplitudes were determined by averaging the last 4 currents under each test
144 condition. The percentage inhibition of each compound was determined by taking the ratio of
145 current amplitude measured in the presence of various concentrations of the test compound
146 (ICompound) versus the vehicle control current (IVehicle):
148 A dose-response curve was generat ed and fit to the Hill equation by the Sophion Analyzer software
149 to determine an IC50 value for each compound. The minimum and the slope of the fit were free […]
For orientation: The hERG channel carries a current that helps repolarise heart muscle cells.

hERG, sequence (Q12809 whole entry): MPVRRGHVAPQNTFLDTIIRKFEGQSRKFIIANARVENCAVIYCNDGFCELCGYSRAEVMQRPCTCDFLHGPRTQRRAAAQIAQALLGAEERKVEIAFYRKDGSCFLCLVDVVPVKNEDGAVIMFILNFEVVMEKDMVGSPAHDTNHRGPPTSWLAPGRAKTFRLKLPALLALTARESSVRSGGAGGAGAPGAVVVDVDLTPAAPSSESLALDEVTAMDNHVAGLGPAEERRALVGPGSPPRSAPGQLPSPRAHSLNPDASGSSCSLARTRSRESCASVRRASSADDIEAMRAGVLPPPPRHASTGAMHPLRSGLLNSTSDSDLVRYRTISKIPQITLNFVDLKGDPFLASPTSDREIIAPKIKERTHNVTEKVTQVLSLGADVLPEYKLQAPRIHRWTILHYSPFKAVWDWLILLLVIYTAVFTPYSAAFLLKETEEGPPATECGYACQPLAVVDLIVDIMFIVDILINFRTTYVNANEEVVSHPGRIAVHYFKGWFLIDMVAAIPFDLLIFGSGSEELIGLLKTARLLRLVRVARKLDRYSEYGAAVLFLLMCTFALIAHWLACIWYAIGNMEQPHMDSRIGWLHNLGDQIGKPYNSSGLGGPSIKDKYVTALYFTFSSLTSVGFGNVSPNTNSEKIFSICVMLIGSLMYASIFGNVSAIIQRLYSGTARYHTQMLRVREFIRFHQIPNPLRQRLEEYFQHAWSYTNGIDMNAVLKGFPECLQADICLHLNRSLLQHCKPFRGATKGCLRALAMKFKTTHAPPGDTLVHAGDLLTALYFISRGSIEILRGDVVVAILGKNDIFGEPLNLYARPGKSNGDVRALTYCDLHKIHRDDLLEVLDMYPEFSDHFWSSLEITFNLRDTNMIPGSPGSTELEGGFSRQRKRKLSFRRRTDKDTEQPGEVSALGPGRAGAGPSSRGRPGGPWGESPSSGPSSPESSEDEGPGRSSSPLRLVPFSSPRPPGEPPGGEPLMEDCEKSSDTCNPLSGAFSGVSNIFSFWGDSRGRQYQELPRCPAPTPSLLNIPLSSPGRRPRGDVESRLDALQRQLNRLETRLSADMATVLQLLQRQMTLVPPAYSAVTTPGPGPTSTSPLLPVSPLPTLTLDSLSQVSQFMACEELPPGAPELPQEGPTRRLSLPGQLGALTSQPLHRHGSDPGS
T1 sequence (Q9BZJ8 whole entry): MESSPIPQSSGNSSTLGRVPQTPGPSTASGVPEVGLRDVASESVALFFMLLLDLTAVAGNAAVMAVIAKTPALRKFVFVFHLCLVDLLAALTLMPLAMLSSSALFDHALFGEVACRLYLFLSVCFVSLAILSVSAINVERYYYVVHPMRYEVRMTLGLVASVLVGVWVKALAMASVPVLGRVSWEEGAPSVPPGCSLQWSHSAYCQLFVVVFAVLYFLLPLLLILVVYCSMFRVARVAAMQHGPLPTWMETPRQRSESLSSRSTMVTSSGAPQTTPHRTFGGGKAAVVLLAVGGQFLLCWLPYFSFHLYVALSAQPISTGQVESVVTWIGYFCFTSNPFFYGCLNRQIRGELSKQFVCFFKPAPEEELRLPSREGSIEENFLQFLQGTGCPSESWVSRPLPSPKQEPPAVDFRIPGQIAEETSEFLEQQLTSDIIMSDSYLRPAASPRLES

What is called IC50 is the concentration that inhibits the measured activity by half. Turning to `CCOc1cc(C)nc(N(CCOC)S(=O)(=O)c2ccc(NCc3c(F)cncc3F)nc2OC)n1` [Compound 1], the “potency against GPR61 relative to GPR62 and GPR101” value at human GPR61 (GPR61 vs GPR62 and GPR101, peer review reply) was “roughly 1000 fold”. Also, the IC50 on human GPR61 (stable CHO TREx cells, Supplementary Table 2) was 0.021 µM; at hERG (extended protocol, 1st period, read-out: Ion Channel Extended Protocol IC50 (nM), Period 1st), 36500 nM; at hERG (extended protocol, 2nd period, read-out: Ion Channel Extended Protocol IC50 (nM), Period 2nd), 28000 nM; at hERG (extended protocol, 3rd period, read-out: Ion Channel Extended Protocol IC50 (nM), Period 3rd), 18700 nM; at hERG (standard protocol, read-out: Patch IC50) it was 52900 nM.
